Where two headings read alike, the source gives them in different places. No end group written: not given here.
Tests used:
[1] = tested on: neoantigen-specific CD8+ T cells; experiment: immune monitoring of vaccinated patients, HLA/peptide dextramer (tetramer) assay on cultured PBMC; type: in vivo, human; settings: for frequency of neoantigen-specific CD8+ T cells / T cell response upon vaccination: post-vaccine PBMC, dextramer assay; for frequency of neoantigen-specific CD8+ T cells: upon culture, at the peak of response; for pre-existing (naturally occurring) T cell immunity: pre-vaccine PBMC samples after in vitro stimulation; for Immunogenicity: AAS-directed CD8+ T cell response in vaccinated patient; for Spontaneous Immunity: pre-vaccine (naturally-occurring) CD8+ T cell response, immune monitoring assay
Method: Immunologic monitoring (Examples 1-10). Immunologic analysis to evaluate the kinetics and magnitude of T cell response to gp100 peptides was performed using PBMCs collected weekly (prior to vaccination and until week 21. Fresh PBMCs obtained by Ficoll-Hypaque gradient centrifugation were adjusted to 2×10^6 cells/ml in Stemline media (Sigma-Aldrich) containing 5% human AB-serum, and dispersed at 1 ml/well in 24-well plates. Cultures were set up for the gp100 peptides and the CMV pp65 peptide (positive peptide control). Cultures were pulsed with 40 μg/ml peptide and 50 U/ml IL-2 fed starting at 48 hours and every other day thereafter. On day 12 (peak of response; the inventors' unpublished observation), cultures were harvested, counted, and stained for flow cytometry analysis. To assess the antigen-specific T cell frequency, cells were stained with HLAA*0201/peptide tetramers (Beckman Coulter) for 30 minutes at room temperature, followed by addition of FITC-conjugated CD4, CD14, CD19, and CD56 and allophycocyanin-conjugated CD8 (Invitrogen) for 15 minutes at 4° C. Cells were washed and resuspended in FACS buffer, and 7AAD was added 5 minutes before analysis. Control CMV pp65-specific CD8+ T cells were detected in all CMV-seropositive patients before and after immunization. A negative HLA-A*0201/HIV gag peptide tetramer control was included. 25,000 events in the CD8+ gate were collected using a hierarchical gating strategy that included FSC/SSC and excluded 7AAD+ (dead) cells and CD4+CD14+CD19+CD56+ cells. Data were acquired and analyzed using Flow-Jo software.
To examine the kinetics and magnitude of T cell immunity to AAS peptides upon vaccination, peripheral blood mononuclear cells (PBMC) were collected prior to vaccination and weekly thereafter. The CD8+ T cell response to each peptide was analyzed using a HLA-A*02:01/AAS-peptide dextramer assay after a single round of in vitro stimulation. FIG. 30A illustrates kinetics of immune responses to neoantigens. Time is recorded in weeks (0 indicates pre-vaccination). Culture conditions and staining details are described infra. Antigen-specific numbers were calculated based on dextramer percentage and total live cell yields. Immunologic analysis to evaluate the kinetic and magnitude of T cell response to AAS-encoding and gp100-derived peptides was performed using PBMC collected weekly, starting before DC vaccination (Pre-vaccine in the figures) as described (Carreno, B. M., et al., J. Clin. Invest., 123, 3383-3394, 2013). Briefly, fresh PBMC obtained by Ficoll-Paque PLUS gradient centrifugation were cultured with 40 ug/mL peptide and IL-2 (50 U/mL). On day 10 (peak of response, unpublished data, labeled “Post-Vaccine” in the figures), neoantigen specific T cell frequencies were determined by staining with HLA-A*02:01/peptide dextramers (Immudex), followed by addition of FITC-CD4, -CD14, -CD19 (Invitrogen) and ALEXA® 488-CD56 (BD Pharmigen), APC-CD8 (Invitrogen). Cells were washed, resuspended in FACS buffer containing 7AAD. Twenty five thousand events in the CD8+ gate were collected using a hierarchical gating strategy that included FSC/SSC and excluded 7AAD-positive (dead cells) and CD4/14/19/56-positive cells. PBMC/CD8+ T cells derived from an unrelated HLA-A*02:01 patient were used as negative controls for assessing specificity of HLA-A*02:01/AAS-peptide dextramers (data not shown). Data were acquired and analyzed using Flow-Jo software. […] FIG. 30B illustrates the frequency of neoantigen specific T cells in CD8+ populations isolated directly from PBMC samples and after ex-vivo expansion using autologous DC and artificial antigen presenting cells. For dominant neoantigens TMEM48 F169L, SEC24A P469L and EXOC8 Q656, results are shown for samples obtained before vaccination (Pre-vaccine) and after 3 vaccine doses (Post-vaccine). For remaining neoantigens, results obtained with post-vaccine PBMC samples are shown. […]

HLA-A*02:01 = molecular target: T1, HLA-A*02:01 (Homo sapiens, UniProt P04439, D140Y/D185E/D98H/E176V/E277Q/G131W/G231S/I119V/I121R/I166T/I218V/L300P/L318F/N151K/N90K/P208A/P217A/Q86G/Q94H/R138H/R169H/T345S); experiment: fluorescence polarization-based competitive peptide binding assay
T1 construct: purchased Pure Protein, L.L.C

[2] = fluorescence polarization-based competitive peptide-binding assay, high affinity log(IC50; nM) <3.7, read-out: Experimental Affinity log(IC50) (converted)

Row | Sequence | frequency of neoantigen-specific CD8+ T cells [1] [%] | pre-existing (naturally occurring) T cell immunity [1] | Immunogenicity [1] | Spontaneous Immunity [1] | IC50 (HLA-A*02:01; [2]) [nM] | T cell response upon vaccination [1] | IC50 (HLA-A*02:01) [nM]
1 | IILVAVPHV | 89 | could be detected in pre-vaccine PBMC samples |  |  |  |  | 
2 | CLNEYHLFL | 23 | could be detected in pre-vaccine PBMC samples | Yes | Yes | 1230 |  | 
3 | MLGEQLFPL | 84 |  | Yes | No | 224 |  | 
4 | KLMNIQQKL | 47 |  | Yes | No |  | reveal two additional ones | 1170
5 | QLSCISTYV | 42 |  | Yes | No | 1260 | reveal two additional ones | 
